The text below walks through data of ChEMBL document CHEMBL1201862, “PubChem BioAssay data set” (2004).

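Following 48 hours of exposure in 96-well plates, responses at five concentrations were used to interpolate endpoints linearly. At the GI50, growth is halved.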 Activity calls are given as the source filed them. No stated cut-off is given here; in the data, active = GI50 up to about 1.1 µM and inactive = higher.

Test systems include DMS-273; XF498; LXFL 529; DLD-1; DMS-114; SNB-78; M19-MEL; HOP-18; RXF 631.
Assay in all cases: NCI-60 cell line screen, 48 h

As to `O=S(O)CCCSSCCCCSSCCCS(=O)O`, the GI50 in the test on DMS-273, with XF498, in the test on LXFL 529, with DLD-1, in the test with DMS-114 and in the test on SNB-78 was > 100 µM (inactive) each time. Also, the GI50 in the test on M19-MEL and in the test with HOP-18 was > 100 µM (inactive) each time.
`NCCSCC(N)C(=O)O` (stereo not given): the GI50 in the test with DMS-273, in the test with XF498, in the test on LXFL 529, in the test on DLD-1, in the test with DMS-114 and in the test on SNB-78 was > 497 µM (inactive) throughout. Further, in the test with M19-MEL, the GI50 is > 497 µM (inactive).
Consider `COC(=O)C1(C)C=C(Nc2ccccc2)C(=O)N1c1ccccc1` (stereo not given), for which the GI50 in the test on XF498, with LXFL 529, in the test on DLD-1, with DMS-114, with SNB-78 and in the test with M19-MEL was > 100 µM (inactive) throughout. Besides, the GI50 with HOP-18 is > 100 µM (inactive); in the test with RXF 631 it was 35.5 µM (inactive).
As to `CCOc1ccc(N2C(=O)C3c4[nH]c5ccccc5c4C4CCC(C(C)(C)C)CC4C3C2=O)cc1` (stereo not given), the GI50 was > 100 µM (inactive) in the test on DMS-273; > 100 µM (inactive) in the test on XF498; > 100 µM (inactive) in the test with LXFL 529; 88.9 µM (inactive) in the test with DLD-1; 50 µM (inactive) in the test with DMS-114; 90.2 µM (inactive) in the test on SNB-78. For the same molecule, the GI50 in the test with HOP-18 is > 100 µM (inactive).
As for `C=CCC1(C)CCCCC1(O)C[S+]([O-])c1ccccc1` (stereo not given), the GI50 in the test with DMS-273, in the test on DLD-1, in the test with DMS-114, in the test on SNB-78, in the test with M19-MEL and with HOP-18 was > 100 µM (inactive) in each case. Also, the GI50 with RXF 631 is > 100 µM (inactive).
With `C=C1C(=O)OC2(C)C3CCC(C3)C12` (stereo not given), the GI50 was 68.4 µM (inactive) in the test with DMS-273; 29.1 µM (inactive) with XF498; 51.1 µM (inactive) in the test on DLD-1; 46.6 µM (inactive) in the test on DMS-114; 34.4 µM (inactive) in the test on SNB-78; 44.8 µM (inactive) with M19-MEL. Also, in the test on HOP-18, the GI50 is > 100 µM (inactive).
Regarding `O=c1ccc2ccc(O)c3c4c(O)ccc5ccc(=O)c(c1c23)c54`, the GI50 with DMS-273 is 1.95 µM (inactive); with XF498, 1.79 µM (inactive); in the test with DLD-1, 1.64 µM (inactive); in the test with DMS-114, 1.51 µM (inactive); in the test with M19-MEL it was 0.69 µM (active); with HOP-18 it was 2.26 µM (inactive).
For `O=C1C[C@@H]2C(COC(=O)c3ccccc3)N(OCc3ccccc3)C[C@@H]2O1` (stereo not given in full), the GI50 in the test on DMS-273, in the test on LXFL 529, in the test with DLD-1, in the test with DMS-114, in the test with SNB-78 and in the test on M19-MEL was > 100 µM (inactive) throughout. The GI50 in the test on HOP-18 and in the test on RXF 631 was > 100 µM (inactive) throughout.
For `COc1ccccc1-c1cc(=O)c2ccccc2[nH]1`, the GI50 in the test on DMS-273 is 57.9 µM (inactive); in the test with LXFL 529 it was > 100 µM (inactive); with DLD-1, > 100 µM (inactive); with SNB-78 it was > 100 µM (inactive); with M19-MEL, > 100 µM (inactive).
As for `C=C[C@@H](C)[C@]1(C(=O)OC)CCCC12OCCO2`, the GI50 in the test on DMS-273 was 39.3 µM (inactive); with XF498, > 100 µM (inactive); in the test with LXFL 529, > 100 µM (inactive); with DLD-1, > 100 µM (inactive); in the test with DMS-114 it was > 100 µM (inactive); in the test with M19-MEL, > 100 µM (inactive). The GI50 in the test on HOP-18 was > 100 µM (inactive).
Consider `O=C(N/N=C1/C(=O)N(c2ccc(Cl)cc2Cl)C(=O)C(=O)C1c1nc2ccccc2o1)c1ccccc1O` (stereo not given), for which the GI50 is > 10 µM (inactive) in the test on DMS-273; 20.4 µM (inactive) with XF498; 37.6 µM (inactive) in the test on LXFL 529; 33 µM (inactive) in the test with DLD-1; 26.4 µM (inactive) in the test on DMS-114; 38.3 µM (inactive) in the test with M19-MEL.
Consider `O=c1/c(=C/c2ccc3c(c2)OCO3)sc2nnc(Cc3ccccc3)n12`, for which the GI50 with DMS-273, with LXFL 529, in the test on DLD-1, in the test on DMS-114, with SNB-78 and in the test on M19-MEL was > 100 µM (inactive) throughout. Also, the GI50 with HOP-18 was 88.1 µM (inactive).
With `Oc1ccc2c(c1)CC[N+]1=C2CCC2CCCC21` (stereo not given) [QUINDONIUM BROMIDE], the GI50 in the test on DMS-273, in the test on LXFL 529, with DLD-1, in the test on DMS-114 and with M19-MEL was > 100 µM (inactive) in each case.
For the molecule `COc1cc(O)c(C(=O)CC(C)=O)c(OC)c1`, the GI50 with DMS-273, with XF498, in the test with LXFL 529, in the test on DLD-1, in the test on DMS-114 and in the test on SNB-78 was > 100 µM (inactive) each time. Further, the GI50 with HOP-18 was > 100 µM (inactive).
With `N#CCCN(CCC#N)c1ccc(/C=N\c2nc(-c3ccccc3)cs2)cc1`, the GI50 is > 100 µM (inactive) in the test with DMS-273; 56.8 µM (inactive) in the test with XF498; > 100 µM (inactive) with LXFL 529; > 100 µM (inactive) in the test with DLD-1; 73.3 µM (inactive) with DMS-114; > 100 µM (inactive) in the test with SNB-78. In addition, the GI50 in the test with M19-MEL and in the test with RXF 631 was > 100 µM (inactive) each time.
`O=C(NC(=O)c1c(Cl)nc2sccn12)Nc1ccc(Cl)cc1`: the GI50 in the test with DMS-273 is > 46.3 µM (inactive); with XF498, 17.9 µM (inactive); in the test on DLD-1, > 48.3 µM (inactive); in the test on DMS-114 it was > 71.3 µM (inactive); in the test with SNB-78 it was 43.1 µM (inactive); with M19-MEL, > 100 µM (inactive). Besides, in the test on RXF 631, the GI50 is > 79.4 µM (inactive).
Consider `O=[N+]([O-])c1cccc(Nc2nc(Cl)nc(Cl)n2)c1`, for which the GI50 with DMS-273, in the test on XF498, in the test with LXFL 529, in the test on DLD-1, in the test with SNB-78 and in the test on M19-MEL was > 100 µM (inactive) in each case. For the same molecule, in the test on RXF 631, the GI50 is > 100 µM (inactive).
For the molecule `CCCCCCCCCCCCC(SCCNC(=O)CCNC(=O)C(O)C(C)(C)COP(=O)(O)OP(=O)(O)OCC1OC(n2cnc3c(N)ncnc32)C(O)C1OP(=O)(O)O)C(=O)NCC(N)=O` (stereo not given), the GI50 in the test on DMS-273 is 41.3 µM (inactive); in the test with LXFL 529 it was > 100 µM (inactive); with DLD-1, > 100 µM (inactive); in the test on DMS-114 it was 95.1 µM (inactive); in the test on M19-MEL, > 100 µM (inactive); in the test with HOP-18, 37.8 µM (inactive). In addition, the GI50 in the test with RXF 631 is > 100 µM (inactive).
On to `O=C(N/C(=C\c1ccc(Br)cc1)c1nc2ccccc2s1)c1ccccc1`, for which the GI50 with DMS-273 is 91.6 µM (inactive); in the test on XF498 it was > 100 µM (inactive); with LXFL 529 it was 54.5 µM (inactive); in the test on DLD-1 it was 46.9 µM (inactive); in the test on DMS-114, 46.5 µM (inactive); with SNB-78, > 100 µM (inactive). In addition, the GI50 in the test on M19-MEL is 70.3 µM (inactive); with HOP-18 it was > 100 µM (inactive); in the test with RXF 631, 87.3 µM (inactive).
Take `O=C(NC1CCCCC1)NS(=O)(=O)c1ccc2c(c1)CCC2` [GLYHEXAMIDE]: the GI50 in the test on XF498, in the test on DLD-1, in the test on DMS-114, in the test with M19-MEL, in the test with HOP-18 and in the test on RXF 631 was > 100 µM (inactive) each time.
Regarding `COC(=O)[C@H]1CC(=O)C=C2CCCC21` (stereo not given in full), the GI50 in the test on DMS-273, in the test with XF498, with LXFL 529, in the test with DLD-1, in the test on DMS-114 and with M19-MEL was > 100 µM (inactive) each time. In addition, in the test with RXF 631, the GI50 is > 100 µM (inactive).
Turning to `O=S(=O)(O)SC/C=C\CSS(=O)(=O)O`, the GI50 with DMS-273, in the test on XF498, in the test on LXFL 529, with DLD-1, in the test with DMS-114 and in the test on SNB-78 was > 100 µM (inactive) each time. Besides, the GI50 with M19-MEL, in the test on HOP-18 and in the test on RXF 631 was > 100 µM (inactive) throughout.
